Experimental data from US8455522B2, “Benzoxazolone derivatives as aldosterone synthase inhibitors” (Novartis AG, priority 2009, dated 2013).

Tests used:
CYP11B1 = target: T1, CYP11B1 (Homo sapiens, UniProt P15538); assay: Cortisol cell secretion in NCI-H295R cells (CYP11B1 activity); format: cell-based; details: compound at 1 μM; for inhibition at 1 µM: NCI-H295R, read-out: Cortisol cell secretion (% Inhib. @ 1 μM)
T1 construct: the NCI-H295R cells have Cyp11 B1 (steroid 11 β-hydroxylase); host or cells: NCI-H295R
T1 sequence (P15538 25-503): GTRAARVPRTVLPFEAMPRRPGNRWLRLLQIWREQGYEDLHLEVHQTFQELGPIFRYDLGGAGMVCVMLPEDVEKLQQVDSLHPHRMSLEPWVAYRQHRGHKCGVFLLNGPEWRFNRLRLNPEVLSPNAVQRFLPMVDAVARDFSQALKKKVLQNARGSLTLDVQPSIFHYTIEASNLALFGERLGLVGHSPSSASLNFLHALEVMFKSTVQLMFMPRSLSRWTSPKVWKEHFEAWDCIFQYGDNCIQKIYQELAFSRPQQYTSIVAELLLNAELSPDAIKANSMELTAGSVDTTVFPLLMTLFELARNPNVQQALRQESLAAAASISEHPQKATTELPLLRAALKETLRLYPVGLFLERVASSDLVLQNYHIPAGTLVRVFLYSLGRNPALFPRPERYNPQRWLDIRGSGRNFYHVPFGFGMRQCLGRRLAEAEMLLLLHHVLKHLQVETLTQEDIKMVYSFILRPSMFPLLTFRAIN
Excerpt: The in vitro inhibitory activities for CYP1B1 can be determined by the following assay.
The cell line NCI-H295R was originally isolated from an adrenocortical carcinoma and has been characterized in the literature through the stimulable secretion of steroid hormones and the presence of the enzymes essential for steroidogenesis. Thus, the NCI-H295R cells have Cyp11 B1 (steroid 11 β-hydroxylase). The cells show the physiological property of zonally undifferentiated human foetal adrenocortical cells which, however, have the capacity to produce the steroid hormones which are formed in the three, phenotypically distinguishable zones in the adult adrenal cortex.
The NCI-H295R cells (American Type Culture Collection, ATCC, Rockville, Md., USA) are grown in Dulbeoco's Modified Eagle'Ham F-12 Medium (DME/F12), which has been supplemented with Ulroser SF Serum (Soprachem, Geigy-Saint-Christophe, France), insulin, transferrin, selenite (I-T-S, Becton Dickinson Biosiences, Franklin lakes. NJ, USA) and antibiotics in 75 cm^2 cell culture vessels at 37° C. and in a 95% air-5% carbon dioxide atmosphere. The cells are subsequently transferred for colony formation into a 24-well incubation vessel. They are cultivated there in DME/F12 medium, which is now supplemented with 0.1% bovine serum instead of Ultroser SF for 24 hours. The experiment is initiated by cultivating the cells in DME/F12 medium which is supplemented with 0.1% bovine serum albumin and test compound, in the presence or absence of cell stimulants, for 72 hours. The test substance is added in a concentration range from 0.2 nanomolar to […]. Cell stimulants which can be used are angiotensin II (1 D or 100 nanomolar), potassium ions (16 millimolar), forskolin (10 micromolar) or a combination of two stimulants.
The excretion of aldosterone, cortisol, corticosterone and estradiol/estrone into the culture medium can be detected and quantified by commercially available, specific monoclonal antibodies in radioimmunoassays in accordance with the manufacturer's instructions.
(§1) Inhibition of the release of certain steroids can be used as a measure of the respective enzyme inhibition by the added test compounds. The dose-dependent inhibition of enzymic activity by a compound is calculated by means of an inhibition plot which is characterized by an IC50.
The inhibition activity of cortisol production (CYP11B1 activity) can also be expressed in percentage inhibition (% inhibition) at a given concentration (e.g. % inhibition at 1 μM), which is the cortisol level when cell is treated with the given concentration of a compound of the invention (e.g. concentration of 1 μM) versus the cortisol excretion when cell is free of the compound of the invention. % inhibition cortisol production=[(Y′−X′)/Y′]×100 wherein X′ is the level of cortisol when the cell is treated with a compound of Formula I; and Y′ is the level of cortisol when the cell is free of compound of Formula I.

aldosterone synthase = target: T2, aldosterone synthase (Homo sapiens, UniProt P19099); assay: Aldosterone cell secretion in NCI-H295R cells (aldosterone synthase inhibition, SPA); format: cell-based; details: human adrenocortical carcinoma NCI-H295R cells, 1 μM Ang II, 24 hr
T2 construct: host or cells: NCI-H295R
T2 sequence (P19099 25-503): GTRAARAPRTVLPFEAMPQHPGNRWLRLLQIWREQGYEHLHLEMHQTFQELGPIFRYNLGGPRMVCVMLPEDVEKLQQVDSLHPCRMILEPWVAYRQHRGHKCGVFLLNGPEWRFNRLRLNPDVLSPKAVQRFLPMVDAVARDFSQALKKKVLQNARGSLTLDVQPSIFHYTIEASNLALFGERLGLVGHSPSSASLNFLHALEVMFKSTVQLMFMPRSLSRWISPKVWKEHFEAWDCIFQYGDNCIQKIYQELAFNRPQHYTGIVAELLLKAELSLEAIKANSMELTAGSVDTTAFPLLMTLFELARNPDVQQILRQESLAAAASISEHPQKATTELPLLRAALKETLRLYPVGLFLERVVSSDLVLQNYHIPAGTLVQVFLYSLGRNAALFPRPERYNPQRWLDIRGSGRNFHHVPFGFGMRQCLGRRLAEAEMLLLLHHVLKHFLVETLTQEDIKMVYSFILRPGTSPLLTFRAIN
Excerpt: In particular, the aldosterone synthase inhibitory activities in vitro can be determined by the following assay.
Human adrenocortical carcinoma NCI-H295R cell line was obtained from American Type Culture Collection (Manassas, Va.). Insulin/transferrin/selenium (ITS)-A supplement (100×). DMEM/F-12, antibiotic/antimycotic (100×), and fetal bovine serum (FBS) were purchased from Invitrogen (Carlsbad, Calif.). Anti-mouse PVT scintillation proximity assay (SPA) beads and NBS 96-well plates were obtained from GE Health Sciences (Piscataway, N.J.) and Corning (Acton, Mass.), respectively. Solid black 96-well flat bottom plates were purchased from Costar (Corning, N.Y.). Aldosterone and angiotensin (Ang II) were purchased from Sigma (St. Louis, Mo.). D-[1,2,6,7-^3H(N)]aldosterone was acquired from PerkinElmer (Boston, Mass.). Nu-serum was a product of BD Biosciences (Franklin Lakes, N.J.). The NADPH regenerating system, dibenzylfluorescein (DBF), and human aromatase Supersomes® were obtained from Gentest (Woburn, Mass.).
For in vitro measurement of aldosterone activity, human adrenocortical carcinoma NCI-H295R cells are seeded in NBS 96-well plates at a density of 25,000 cells/well in 100 μl of a growth medium containing DMEM/F12 supplemented with 10% FCS, 2.5% Nu-serum, 1 μg ITS/ml, and 1× antibiotic/antimycotic. The medium is changed after culturing for 3 days at 37° C. under an atmosphere of 5% CO2/95% air. On the following day, cells are rinsed with 100 μl of phosphate-buffered saline (PBS) and incubated with 100 μl of treatment medium containing 1 μM Ang II and a compound at different concentrations in quadruplicate wells at 37° C. for 24 hr. At the end of incubation, 50 μl of medium is withdrawn from each well for measurement of aldosterone production by an SPA using mouse anti-aldosterone monoclonal antibodies.
Measurement of aldosterone activity can also be performed using a 96-well plate format. Each test sample is incubated with 0.02 μCi of D-[1,2,6,7-^3H(N)]aldosterone and 0.3 μg of anti-aldosterone antibody in PBS containing 0.1% Triton X-100, 0.1% bovine serum albumin, and 12% glycerol in a total volume of 200 μl at room temperature for 1 hr. Anti-mouse PVT SPA beads (50 μl) are then added to each well and incubated overnight at room temperature prior to counting in a Microbeta plate counter. The amount of aldosterone in each sample is calculated by comparing with a standard curve generated using known quantities of the hormone.
as §1
The IC50 values for active test compounds are ascertained by a simple linear regression analysis in order to construct inhibition plots without data weighting. The inhibition plot is calculated by fitting a 4-parameter logistic function to the raw data points using the least squares method. The equation of the 4-parameter logistic function is calculated as follows: Y=(d−a)/((1+(x/c)b))+a, where: a=minimum data level, b=gradient, I […], d=maximum data level, x=inhibitor concentration.
The inhibition activity of aldosterone production can also be expressed in percentage inhibition (% inhibition) at a given concentration (e.g. % inhibition at 1 μM), which is the aldosterone level when the cell is treated with the given concentration of a compound of this invention (e.g. concentration of 1 μM) versus the aldosterone excretion when cell is free of the compound of the invention: % inhibition aldosterone production=[(Y−X)/Y]×100 wherein X is the level of aldosterone when the cell is treated with a compound of Formula I; and Y is the level of aldosterone when the cell is free of compound of Formula I.

Row | Compound | inhibition at 1 µM (CYP11B1) [%] | IC50 (aldosterone synthase) [nM] | Cortisol cell secretion (% Inhib. @ 1 μM) (CYP11B1; 1 µM) [%]
1 | Cn1c(=O)oc2ccc(-c3cncc(F)c3CO)cc21 [Example 36, 5-(5-fluoro-4-(hydroxymethyl)pyridin-3-yl)-3-methylbenzo[d]oxazol-2(3H)-one] | 13 | 144 | 
2 | CC(O)c1ccncc1-c1ccc2oc(=O)n(C)c2c1 (single isomer, unassigned) [Example 7 Enantiomer 1, 5-(4-(1-hydroxyethyl)pyridin-3-yl)-3-methylbenzo[d]oxazol-2(3H)-one] |  | 437 | 
3 | Cn1c(=O)oc2ccc(-c3cnccc3C(O)c3ccc(F)cc3)cc21 (single isomer, unassigned) [Example 8 Enantiomer 2, 5-(4-((4-fluorophenyl)(hydroxy)methyl)pyridin-3-yl)-3-methylbenzo[d]oxazol-2(3H)-one] |  | 66 | 73
4 | CC(O)c1ccncc1-c1ccc2oc(=O)n(C)c2c1 (single isomer, unassigned) [Example 7 Enantiomer 2, 5-(4-(1-hydroxyethyl)pyridin-3-yl)-3-methylbenzo[d]oxazol-2(3H)-one] |  | 452 | 
5 | CCN(Cc1ccccc1)Cc1cncc(-c2ccc3oc(=O)n(C)c3c2)c1 [Example 10, 5-{5-[(Benzyl-ethyl-amino)-methyl]-pyridin-3-yl}-3-methyl-3H-benzooxazol-2-one] | 96 | 17 | 
6 | CCCS(=O)(=O)Nc1cncc(-c2ccc3oc(=O)n(C)c3c2)c1 [Example 28, N-(5-(3-methyl-2-oxo-2,3-dihydrobenzo[d]oxazol-5-yl)pyridin-3-yl)propane-1-sulfonamide] | 30 | 154 | 
7 | Cn1c(=O)oc2ccc(-c3cncc(CO)c3)cc21 [Example 15, 5-(5-(hydroxymethyl)pyridin-3-yl)-3-methylbenzo[d]oxazol-2(3H)-one] | 83 | 21 | 
8 | CN(c1cncc(-c2ccc3oc(=O)n(C)c3c2)c1)S(=O)(=O)C1CC1 [Example 21, N-methyl-N-(5-(3-methyl-2-oxo-2,3-dihydrobenzo[d]oxazol-5-yl)pyridin-3-yl)cyclopropanesulfonamide] | 65.5 | 68 | 
9 | Cn1c(=O)oc2ccc(-c3cncc(C(O)C4CC4)c3)cc21 (single isomer, unassigned) [Example 13 Enantiomer 1, 5-(5-(cyclopropyl(hydroxy)methyl)pyridin-3-yl)-3-methylbenzo[d]oxazol-2(3H)-one] | 64 | 28 | 
10 | Cn1c(=O)oc2ccc(-c3cnccc3C(O)c3ccc(F)cc3)cc21 (single isomer, unassigned) [Example 8 Enantiomer 1, 5-(4-((4-fluorophenyl)(hydroxy)methyl)pyridin-3-yl)-3-methylbenzo[d]oxazol-2(3H)-one] | 77 | 53 | 
11 | Cc1ccncc1-c1ccc2oc(=O)n(C)c2c1 [Example 2, 3-Methyl-5-(4-methyl-pyridin-3-yl)-3H-benzooxazol-2-one] | 82 | 4 | 
12 | Cn1c(=O)oc2ccc(-c3cccnc3)cc21 [Example 1, 3-Methyl-5-pyridin-3-yl-3H-benzooxazol-2-one] | 58 | 17.8 | 
13 | COc1cncc(-c2ccc3oc(=O)n(C)c3c2)c1 [Example 4, 5-(5-methoxypyridin-3-yl)-3-methylbenzo[d]oxazol-2(3H)-one] | 77 | 18 | 
14 | Cn1c(=O)oc2cc(F)c(-c3cncc(CO)c3)cc21 [Example 11] | 39 | 128 | 
15 | Cn1c(=O)oc2ccc(-c3cncc(C(O)C(F)(F)F)c3)cc21 (stereo not shown) [Example 19, 3-methyl-5-(5-(2,2,2-trifluoro-1-hydroxyethyl)pyridin-3-yl)benzo[d]oxazol-2(3H)-one] | 95 | 1.4 | 
